These results are taken from ChEMBL document CHEMBL1133875, “1-(Arylpiperazinylamidoalkyl)-pyrimidones: orally active inhibitors of lipoprotein-associated phospholipase A(2)” (Bioorg Med Chem Lett, 2001).

SMILES strings stand for the structures. pIC50: −log10 of the molar value.

The target in data set [1] is T1, Platelet-activating factor acetylhydrolase (Homo sapiens, UniProt Q13093).
T1 sequence (Q13093 whole entry): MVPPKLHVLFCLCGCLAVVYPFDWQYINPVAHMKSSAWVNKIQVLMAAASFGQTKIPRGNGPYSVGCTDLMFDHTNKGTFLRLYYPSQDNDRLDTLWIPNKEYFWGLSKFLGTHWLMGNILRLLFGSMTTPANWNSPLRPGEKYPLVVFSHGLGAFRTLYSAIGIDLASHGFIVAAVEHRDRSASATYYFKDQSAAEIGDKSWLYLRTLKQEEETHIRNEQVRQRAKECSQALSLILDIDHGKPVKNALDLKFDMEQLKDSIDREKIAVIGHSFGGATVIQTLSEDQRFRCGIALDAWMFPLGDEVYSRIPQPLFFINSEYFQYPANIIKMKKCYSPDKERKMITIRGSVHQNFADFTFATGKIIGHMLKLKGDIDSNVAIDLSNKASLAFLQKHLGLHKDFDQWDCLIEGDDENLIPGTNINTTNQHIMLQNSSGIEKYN
Put plainly: Inhibitory activity against human lipoprotein associated phospholipase A2 (Lp-PLA2).

For data set [2], the species on record is Homo sapiens. The experiment in a line: Intrinsic clearance in human liver microsomes. Format: ADME, Microsome. Background: Microsomes from liver hold many membrane-bound enzymes, among them those of drug oxidation.
The species named for data set [3] is Rattus norvegicus. The experiment in a line: Intrinsic clearance in rat liver microsomes. Format: ADME, Microsome.

By pIC50 is commonly meant −log10 of the IC50, conventionally taken in molar units. The low end stands for a high IC50, the high end for a low IC50.

As for `Cn1cc(Cc2cn(CCCC(=O)N3CCN(c4ccc(C(F)(F)F)cc4)CC3)c(SCc3ccc(F)cc3)nc2=O)cn1`, in data set [1], the pIC50 is 8.30.

As for `Cn1cc(Cc2cn(CC(=O)N3CCN(C4CCCCC4)CC3)c(SCc3ccc(F)cc3)nc2=O)cn1`, the pIC50 in data set [1] is 6.14. Against the preceding compound, the pIC50 is 2.16 log units lower.

In data set [1], `CC(=O)c1ccc(N2CCN(C(=O)Cn3cc(Cc4cncnc4)c(=O)nc3SCc3ccc(F)cc3)CC2)cc1` gave a pIC50 of 6.89. Against the preceding compound, the pIC50 is 0.75 log units higher.

`O=C(Cn1cc(Cc2cncnc2)c(=O)nc1SCc1ccc(F)cc1)N1CCN(c2ccccc2)C(=O)C1` showed a pIC50 in data set [1] of 5.17.

Consider `O=C(Cn1cc(Cc2cncnc2)c(=O)nc1SCc1ccc(F)cc1)N1CCN(c2ccc(F)cc2)CC1`, for which the pIC50 in data set [1] is 7.01.

As for `COc1ncc(Cc2cn(CCCC(=O)N3CCN(c4ccc(Cl)cc4)CC3)c(SCc3ccc(F)cc3)nc2=O)cn1`, the CLi in data set [2] is above 50 mL/min/g; in data set [3] it was 19 mL/min/g. Further, the pIC50 in data set [1] is 8.10.

On to `O=C(Cn1cc(Cc2cnc(C3CC3)nc2)c(=O)nc1SCc1ccc(F)cc1)N1CCN(c2ccc(Cl)cc2)CC1`, for which, in data set [1], the pIC50 was 7.68.

As to `CN(C)c1ncc(Cc2cn(CC(=O)N3CCN(c4ccc(Cl)cc4)CC3)c(SCc3ccc(F)cc3)nc2=O)cn1`, the pIC50 in data set [1] was 7.54. This pIC50 and that of the compound before are within 0.2 log units of each other.

In data set [1], `O=C(Cn1cc(Cc2cncnc2)c(=O)nc1SCc1ccc(F)cc1)N1CCN(C(=O)c2ccccc2)CC1` gave a pIC50 of 5.89. This pIC50 is 1.65 log units lower than that of the compound before.

`COc1ncc(Cc2cn(CCCC(=O)N3CCN(c4ccc(Cl)c(Cl)c4)CC3)c(SCc3ccc(F)cc3)nc2=O)cn1` showed a pIC50 in data set [1] of 8.70.

As to `CCCCCCCCN1CCN(C(=O)Cn2cc(Cc3cnn(C)c3)c(=O)nc2SCc2ccc(F)cc2)CC1`, the pIC50 in data set [1] was 7.62.

`Cn1cc(Cc2cn(CCCC(=O)N3CCN(c4ccc(Cl)c(Cl)c4)CC3)c(SCc3ccc(F)cc3)nc2=O)cnc1=O` gave a pIC50 in data set [1] of 8.05.

`Cn1cc(Cc2cn(CC(=O)N3CCN(c4ccc(Cl)cc4)CC3)c(SCc3ccc(F)cc3)nc2=O)cn1` gave a pIC50 in data set [1] of 7.36.

With `O=C(Cn1cc(Cc2cncnc2)c(=O)nc1SCc1ccc(F)cc1)N1CCN(c2ccc(C(F)(F)F)cc2)CC1`, the pIC50 in data set [1] was 7.59.

With `Cc1ncc(Cc2cn(CC(=O)N3CCN(c4ccc(Cl)cc4)CC3)c(SCc3ccc(F)cc3)nc2=O)cn1`, the CLi in data set [2] came to 7 mL/min/g; in data set [3] it was 3 mL/min/g. The compound further showed a pIC50 in data set [1] of 7.74.

On to `Cn1cc(Cc2cn(CC(=O)N3CCN(c4ccc(Br)cc4)CC3)c(SCc3ccc(F)cc3)nc2=O)cn1`, for which the pIC50 in data set [1] was 7.29.

Turning to `COc1ncc(Cc2cn(CC(=O)N3CCN(c4ccc(Cl)c(Cl)c4)CC3)c(SCc3ccc(F)cc3)nc2=O)cn1`, the CLi in data set [2] is 7 mL/min/g; in data set [3], 2 mL/min/g.

In data set [1], `O=C(Cn1cc(Cc2cncnc2)c(=O)nc1SCc1ccc(F)cc1)N1CCN(c2ccccc2)CC1` showed a negative-log IC50 (pIC50) of 6.92.

In data set [1], `O=C(Cn1cc(Cc2cncnc2)c(=O)nc1SCc1ccc(F)cc1)N1CCN(c2ccccn2)CC1` gave a pIC50 of 6.46.

`O=C(O)Cn1cc(Cc2cn(CC(=O)N3CCN(c4ccc(Cl)cc4)CC3)c(SCc3ccc(F)cc3)nc2=O)cnc1=O` had a pIC50 in data set [1] of 7.05.

For `COc1ncc(Cc2cn(CC(=O)N3CCN(c4ccc(Cl)cc4)CC3)c(SCc3ccc(F)cc3)nc2=O)cn1`, the CLi in data set [2] is 3 mL/min/g; in data set [3] it was 2 mL/min/g. Moreover, in data set [1], the pIC50 is 7.70.

In data set [1], `Cn1cc(Cc2cn(CC(=O)N3CCN(Cc4ccccc4)C(=O)C3)c(SCc3ccc(F)cc3)nc2=O)cn1` gave a pIC50 of 6.28.

With `Cn1cc(Cc2cn(CC(=O)N3CCN(c4ccc(Cl)cc4)CC3)c(SCc3ccc(F)cc3)nc2=O)cnc1=O`, the CLi is 4 mL/min/g in data set [2] and 3 mL/min/g in data set [3]. The compound further had a pIC50 in data set [1] of 7.15.

Compound `O=C(Cn1cc(Cc2cncnc2)c(=O)nc1SCc1ccc(F)cc1)N1CCN(c2cccc(Cl)c2)CC1` gave a pIC50 in data set [1] of 7.18.

In data set [1], `CCCCCCCC/C=C/CCCCCCCCNC(=O)CCCn1cc(Cc2cncnc2)c(=O)nc1SCc1ccc(F)cc1` gave a pIC50 of 9.40.

Compound `O=C(O)Cn1cc(Cc2cn(CCCC(=O)N3CCN(c4ccc(Cl)c(Cl)c4)CC3)c(SCc3ccc(F)cc3)nc2=O)cnc1=O` showed a pIC50 in data set [1] of 8.05.

With `Cn1cc(Cc2cn(CC(=O)N3CCN(c4ccc(Cl)c(Cl)c4)CC3)c(SCc3ccc(F)cc3)nc2=O)cn1`, the results for the CLi in data set [2] and in data set [3] were 11 mL/min/g and 6 mL/min/g, respectively. Also, the pIC50 in data set [1] was 7.92.

In the case of `O=C(Cn1cc(Cc2cnc(N3CCOCC3)nc2)c(=O)nc1SCc1ccc(F)cc1)N1CCN(c2ccc(Cl)cc2)CC1`, the results for the CLi in data set [2] and in data set [3] were above 50 mL/min/g and 13 mL/min/g, respectively. Also, the pIC50 in data set [1] was 8.00.

As for `Cn1cc(Cc2cn(CCCC(=O)N3CCN(c4ccc(Cl)cc4)CC3)c(SCc3ccc(F)cc3)nc2=O)cn1`, the pIC50 in data set [1] was 8.52.

In data set [1], `O=C(Cn1cc(Cc2cnc(C(F)(F)F)nc2)c(=O)nc1SCc1ccc(F)cc1)N1CCN(c2ccc(Cl)cc2)CC1` had a pIC50 of 7.16.

Regarding `O=C(Cn1cc(Cc2cncnc2)c(=O)nc1SCc1ccc(F)cc1)N1CCNCC1`, in data set [1], the pIC50 was 6.34.

Compound `CCCCCCCCCCCCN(C)C(=O)Cn1cc(Cc2cnc(OC)nc2)c(=O)nc1SCc1ccc(F)cc1` had a pIC50 in data set [1] of 9.00.

As for `CC(C)(C)c1ncc(Cc2cn(CC(=O)N3CCN(c4ccc(Cl)cc4)CC3)c(SCc3ccc(F)cc3)nc2=O)cn1`, in data set [1], the pIC50 was 7.47. This pIC50 lies 1.53 log units lower than the previous one.

In data set [1], `COc1ncc(Cc2cn(CCCC(=O)N3CCN(c4ccc(C(F)(F)F)cc4)CC3)c(SCc3ccc(F)cc3)nc2=O)cn1` showed a pIC50 of 8.70.

The compound `O=C(Cn1cc(Cc2cncnc2)c(=O)nc1SCc1ccc(F)cc1)N1CCN(c2cncnc2)CC1` gave a pIC50 in data set [1] of 6.39.

`COc1ccc(N2CCN(C(=O)Cn3cc(Cc4cncnc4)c(=O)nc3SCc3ccc(F)cc3)CC2)cc1`: the pIC50 in data set [1] is 6.75.

`O=C(Cn1cc(Cc2cncnc2)c(=O)nc1SCc1ccc(F)cc1)N1CCN(Cc2ccccc2)CC1` showed a pIC50 in data set [1] of 7.07.

In the case of `O=C(Cn1cc(Cc2cncnc2)c(=O)nc1SCc1ccc(F)cc1)N1CCN(S(=O)(=O)c2ccccc2)CC1`, the pIC50 in data set [1] was 6.59.
